The source of these data is PubChem BioAssay (NCI).

Some test systems named below: OVCAR-4 ovarian; IGROV1 ovarian; EKVX NSCLC; BT-549 breast; SK-MEL-5 melanoma; COLO 205 colon; MCF7 breast; UACC-62 melanoma; U251 CNS; HS 578T breast.
Common to all, as to assay: NCI tumour cell line growth inhibition, 48 h

Each structure is given as a SMILES string.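 Grown in 96-well plates, cells were treated for 48 hours with each compound at five concentrations. Insufficient inhibition: endpoint recorded as highest concentration tested. Abbreviation: GI50, concentration required for 50% inhibition of growth. TGI is the concentration that stops growth completely.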 Some results are limits rather than exact numbers.

Turning to `CCNC(=O)Oc1ccc(/C(=C(\C)c2ccc(Cl)cc2)c2ccc(OCCN3CCCCC3)cc2)cc1`, the GI50 in the assay with OVCAR-4 ovarian is 2.99 µM; with IGROV1 ovarian, 4.13 µM; in the assay on EKVX NSCLC it was 6.14 µM; in the assay on BT-549 breast, 4.27 µM; in the assay on SK-MEL-5 melanoma, 1.79 µM; in the assay with COLO 205 colon it was 2.1 µM. The GI50 in the assay with MCF7 breast was 0.484 µM; in the assay on UACC-62 melanoma it was 2.5 µM; in the assay on U251 CNS it was 4.19 µM; with HS 578T breast, 3.62 µM. The TGI in the assay with OVCAR-4 ovarian amounted to 12.9 µM; with IGROV1 ovarian it was 15.8 µM; with EKVX NSCLC, 21.9 µM; with BT-549 breast, 16.6 µM; with SK-MEL-5 melanoma, 3.17 µM; with COLO 205 colon, 4.6 µM. Further, the TGI in the assay with MCF7 breast amounted to 8.06 µM; in the assay with UACC-62 melanoma, 6.01 µM; with U251 CNS, 14.5 µM; in the assay on HS 578T breast, 17.2 µM.
`CCCCCCN(CCCCCC)CC(O)c1cccc2ccc(Cl)cc12` (stereo not given): the GI50 with OVCAR-4 ovarian was 7.44 µM; in the assay with IGROV1 ovarian, 10.3 µM; in the assay on EKVX NSCLC, 10.5 µM; with BT-549 breast, 14.1 µM; in the assay with SK-MEL-5 melanoma, 2.12 µM; in the assay on COLO 205 colon, 3.82 µM. In addition, the GI50 in the assay on MCF7 breast is 7.52 µM; with UACC-62 melanoma, 8.11 µM; in the assay with U251 CNS it was 10.5 µM; with HS 578T breast, 8.36 µM. Further, the TGI was determined as 33 µM with OVCAR-4 ovarian; 23.8 µM in the assay on IGROV1 ovarian; 25.5 µM in the assay with EKVX NSCLC; 28 µM in the assay with BT-549 breast; 5.17 µM in the assay with SK-MEL-5 melanoma; 14.9 µM with COLO 205 colon. Further, the TGI was found to be 20.3 µM in the assay on MCF7 breast, 21.2 µM in the assay on UACC-62 melanoma, 23.5 µM in the assay on U251 CNS and 26.4 µM in the assay with HS 578T breast.
Regarding `COc1cc2c(cc1OC)[C@H]1C(=O)c3cc4c(cc3[C@H]1N(C)C2=O)OCO4`, the TGI was above 100 µM in the assay with OVCAR-4 ovarian; above 100 µM with IGROV1 ovarian; above 100 µM in the assay with EKVX NSCLC; above 100 µM in the assay with BT-549 breast; above 48.8 µM with SK-MEL-5 melanoma; above 46.4 µM with COLO 205 colon. The TGI in the assay on MCF7 breast, in the assay with UACC-62 melanoma, in the assay on U251 CNS and in the assay with HS 578T breast was above 100 µM in each case.
As for `CCCCCCN1C(=O)CN=C1Nc1ccc2cc3ccc(NC4=NCC(=O)N4CCCCCC)cc3nc2c1`, the GI50 was 1.66 µM with OVCAR-4 ovarian; 1.85 µM in the assay with IGROV1 ovarian; 1.89 µM in the assay with EKVX NSCLC; 3.46 µM in the assay with BT-549 breast; 3.9 µM in the assay with SK-MEL-5 melanoma; 1.88 µM in the assay with COLO 205 colon. In addition, the GI50 with MCF7 breast was 1.66 µM; in the assay with UACC-62 melanoma it was 11.7 µM; in the assay on U251 CNS, 1.63 µM; with HS 578T breast, 2.08 µM. Further, the TGI with OVCAR-4 ovarian is 4.01 µM; with IGROV1 ovarian it was 4.28 µM; in the assay on EKVX NSCLC, 5.22 µM; in the assay on BT-549 breast, 17.6 µM; in the assay with SK-MEL-5 melanoma, 15.8 µM; in the assay with COLO 205 colon, 4.04 µM. The TGI in the assay with MCF7 breast was determined as 3.95 µM; with UACC-62 melanoma, 30 µM; in the assay with U251 CNS, 3.13 µM; with HS 578T breast, 5.66 µM.
For `Nc1ncnc2c1ncn2Cc1ccc(C23CC4CC(CC(C4)C2)C3)c(O)c1`, the GI50 in the assay with OVCAR-4 ovarian is 2.71 µM; in the assay on IGROV1 ovarian, 27.2 µM; with EKVX NSCLC, 33.4 µM; in the assay with BT-549 breast, 23.5 µM; in the assay with SK-MEL-5 melanoma it was 4.02 µM; in the assay with COLO 205 colon, 29.1 µM. The GI50 was 17.4 µM with MCF7 breast, 31.8 µM in the assay on UACC-62 melanoma, 14.8 µM in the assay with U251 CNS and 10.7 µM in the assay on HS 578T breast. Further, the TGI in the assay on OVCAR-4 ovarian was 8.66 µM; with IGROV1 ovarian, above 100 µM; with EKVX NSCLC, above 100 µM; in the assay on BT-549 breast, above 100 µM; in the assay on SK-MEL-5 melanoma it was 88.2 µM; in the assay on COLO 205 colon, above 100 µM. In addition, the TGI is above 100 µM in the assay on MCF7 breast, above 100 µM in the assay on UACC-62 melanoma, 32.6 µM in the assay with U251 CNS and 69.7 µM in the assay with HS 578T breast.
On to `COc1cc(C(=O)N/N=C/c2cccc([N+](=O)[O-])c2)cc(OC)c1OC`, for which the GI50 in the assay with OVCAR-4 ovarian is 43.4 µM; with IGROV1 ovarian, 4.63 µM; in the assay on EKVX NSCLC, 18.7 µM; with BT-549 breast it was 4.95 µM; in the assay on SK-MEL-5 melanoma it was 2.76 µM; with COLO 205 colon, 5.11 µM. Besides, the GI50 with MCF7 breast was 4.49 µM; in the assay on UACC-62 melanoma it was 6.31 µM; with U251 CNS, 4.47 µM; with HS 578T breast, 2.02 µM. Besides, the TGI in the assay on OVCAR-4 ovarian is above 100 µM; in the assay on IGROV1 ovarian, above 100 µM; with EKVX NSCLC, above 100 µM; in the assay on BT-549 breast, 86.6 µM; with SK-MEL-5 melanoma, above 100 µM; with COLO 205 colon, 26.9 µM. Also, the TGI in the assay on MCF7 breast is above 100 µM; in the assay with UACC-62 melanoma it was above 100 µM; in the assay with U251 CNS, 26.1 µM; in the assay with HS 578T breast, 8.6 µM.
As to `CC1SC2(CCCCC2)N(NC(=O)c2[nH]c3ccc(F)cc3c2-c2ccccc2)C1=O` (stereo not given), the GI50 with OVCAR-4 ovarian is 41.6 µM; in the assay with IGROV1 ovarian, 16 µM; in the assay on EKVX NSCLC, above 100 µM; in the assay with BT-549 breast, above 100 µM; in the assay on SK-MEL-5 melanoma it was above 100 µM; with COLO 205 colon, above 100 µM. Further, the GI50 in the assay on MCF7 breast is above 100 µM; with UACC-62 melanoma it was 21.2 µM; in the assay with U251 CNS, 48.5 µM; in the assay on HS 578T breast it was 66.8 µM. In addition, the TGI in the assay with OVCAR-4 ovarian is above 100 µM; in the assay with IGROV1 ovarian it was 97.3 µM; in the assay with EKVX NSCLC, above 100 µM; in the assay with BT-549 breast, above 100 µM; in the assay on SK-MEL-5 melanoma, above 100 µM; in the assay on COLO 205 colon, above 100 µM. The TGI with MCF7 breast, in the assay with UACC-62 melanoma, with U251 CNS and with HS 578T breast was above 100 µM in each case.
For the compound `O=C(CC(C(=O)O)N1CCOCC1)c1ccccc1` (stereo not given), the TGI in the assay on OVCAR-4 ovarian is 43.2 µM; in the assay with IGROV1 ovarian it was 63.2 µM; in the assay on EKVX NSCLC, 38.4 µM; with BT-549 breast it was 33.5 µM; in the assay on SK-MEL-5 melanoma, 43 µM; in the assay on COLO 205 colon it was 39.7 µM. The TGI turned out to be 31.2 µM in the assay on MCF7 breast, 29.5 µM in the assay with UACC-62 melanoma, 30.9 µM in the assay with U251 CNS and 88.9 µM in the assay with HS 578T breast.
